Patent publication US6156744A, “DT-diaphorase directed anti-tumor agents” (Cancer Research Campaign Tech (London), priority 1999, dated 2000)
Where two headings read alike, the source gives them in different places.

Legend:
DNA [1] = details: literature; cited from earlier work
DTD-rich cell lines = details: literature; cited from earlier work
DTD = details: cited from earlier work; for Substrate quality for DTD / pH dependence of metabolism by DTD: literature
DNA [2] = details: Lee et al. 1992; cited from earlier work
[3] = tested on: BE human colon carcinoma cells and H460 human non-small cell lung cancer cells; assay: MTT cytotoxicity, continuous four day exposure, BE versus H460 (FIG. 2); assay type: cell-based; details: four days, 5760 min
Method: (§1) The cell line BE is a human colon carcinoma that is described in Day et al., Carcinogenesis 1 :21-32 (1980).
The cytotoxicity of RH1 and MeDZQ to BE human colon carcinoma cells and H460 human non small cell lung cancer cells was determined. BE cells are DT-diaphorase null due to a mutation in the DT-diaphorase gene, while H460 cells have elevated DT-diaphorase levels (Traver et al., (1997) supra.). Cytotoxicity was determined using the MTT assay and cells were exposed to drug continuously throughout the four day assay.

H460 and H596 cells = details: Ross et al. 1993; cited from earlier work
spheroid = details: literature; cited from earlier work
[4] = tested on: CHO cell lines stably transfected with human DTD; details: Gustafson et al. 1996; cited from earlier work
NSCLC xenografts = details: cited from earlier work
[5] = cited from earlier work
[6] = tested on: NSCLC and breast cancer cell lines; details: Beall et al. 1995; cited from earlier work
[7] = biological target: human recombinant DT-diaphorase (Homo sapiens, UniProt P15559); assay: NADH removal and quinone removal by recombinant human DT-diaphorase, HPLC; assay type: biochemical; details: for NADH Removal / Quinone Removal: 0.05 mM quinone, 10-100 ng/ml rhDT-diaphorase, 0.2 mM NADH, 25 mM Tris pH 7.4, n=3
human recombinant DT-diaphorase, sequence (P15559 whole entry): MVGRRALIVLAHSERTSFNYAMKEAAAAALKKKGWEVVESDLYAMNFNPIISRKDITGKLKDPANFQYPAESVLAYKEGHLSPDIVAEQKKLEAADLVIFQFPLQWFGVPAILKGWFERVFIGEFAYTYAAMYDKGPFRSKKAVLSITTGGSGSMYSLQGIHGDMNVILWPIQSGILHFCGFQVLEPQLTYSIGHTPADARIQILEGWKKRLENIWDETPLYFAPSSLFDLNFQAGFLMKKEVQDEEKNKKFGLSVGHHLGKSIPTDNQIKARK
Method: The relative abilities of MeDZQ and RH1 to serve as substrates for human recombinant DT-diaphorase were determined. Both quinones (0.05 mM) were incubated with 10-100 ng/ml recombinant human DT-diaphorase and NADH (0.2 mM) in 25 mM Tris buffer, pH 7.4, containing 1 mM DETAPAC. NADH removal was measured by HPLC as described in Beall et al., (1995), supra.

[8] = Beall et al. 1994, 1995; cited from earlier work
[9] = tested on: cells under hypoxic conditions; details: hypoxic vs aerobic; cited from earlier work
[10] = tested on: 69 human tumor cell lines; details: p<0.016; cited from earlier work
BE and HT-29 cells = assay: MTT continuous challenge cytotoxicity, ratio BE/HT-29; assay type: cell-based, human; details: ratio of cytotoxicities, five days, 7200 min
Method: (§2) The cell lines used in this work were HT29, H460, H596, BE. These were obtained from the ATCC or from the European Collection for Animal Cell Cultures, ECACC. HT29 is a human colon cancer cell line and H460 is a human large cell lung carcinoma cell line. These two cell lines were used as they express relatively high levels of DTD. […] Continuous challenge cytotoxicity studies were carried out on these cells (600 per well) in 96 well plates using the MTT method. After five days, the absorbances were read on a multiscan plate reader at 540 and 640nm. Plots were then drawn for inhibition of cell growth as a function concentration. Each compound was tested in triplicate at each concentration on at least two occasions.

H596 and H460 cells = assay: MTT continuous challenge cytotoxicity, ratio H596/H460; assay type: cell-based, human; details: ratio of cytotoxicities, five days, 7200 min
Method: as §2

[11] = Half-life in pharmacokinetics; details: attributed to free hydroxyl group / water solubility
DNA [12] = assay: DNA crosslinking sequence specificity; assay type: biochemical
CHO812 and CHOglyA cells = assay: Cytotoxicity of RH1 to CHOglyA and DTD-transfected CHO812 cells (FIG. 3); assay type: cell-based, chinese hamster
Method: as §1
Further studies were conducted to determine the cytotoxicity of RH1 to CHOglyA and CHO812 cells. CHOglyA cells have non detectable levels of DT-diaphorase, whereas CHO812 cells have elevated levels of DT-diaphorase as reported in Gustafson et al., (1996) supra. The original CHO cell lines were obtained from the American Type Culture Collection, Rockville, Md.

[13] = Stability of RH1 in phosphate buffer; assay type: physicochemical
Method: (§3) RH1 is easily synthesized with very high purity (>99%). […] The RH1 solutions are very stable with a half life of RH1 in phosphate buffer (0.1 M, pH=7) of more than 2 days at 25° C.

[14] = Solubility in aqueous solution; assay type: physicochemical; details: phosphate buffered saline; 25° C.
Method: as §3

[15] = tested on: H460 and H596 human non-small cell lung cancer cells; assay: MTT cytotoxicity, 2 hour exposure, H460 versus H596 cells (FIG. 1); assay type: cell-based
Method: FIG. 1 compares the cytotoxicity of RH1 in human non small cell lung tumor cell lines with elevated DTD activity (H460) and those with no detectable DTD activity (H596). RH1 was 350 fold more toxic to tumor cells with elevated DTD activity than to DTD null cells.
Studies were conducted to determine the cytotoxicity of RH1 against human non small cell lung cancer cell lines. H596 cells are DT-diaphorase null due to a mutation in the DT-diaphorase gene, while H460 cells have elevated DT-diaphorase levels as described in Beall et al., (1995) supra and Traver et al., Br. J. Cancer, 75:69-75 (1997). The cell lines H460 and H596 are available from the American Tissue Type Culture Collection (ATCC), Rockville, Md. Cytotoxicity was determined after a 2 hour drug exposure in serumless medium using the MTT assay as described in detail in Beall et al., (1995), supra.

[16] = Bibby et al. 1993; cited from earlier work

CCOC(=O)NC1=C(N2CC2)C(=O)C(NC(=O)OCC)=C(N2CC2)C1=O [AZQ, Diaziquone]
DNA damage after reduction (crosslinks, strand breaks) (DNA [1]): does not readily form DNA crosslinks after reduction by DTD
Selectivity for DTD-rich cell lines (DTD-rich cell lines): failed to show any selectivity for DTD-rich cell lines
Substrate quality for DTD (DTD): extremely poor substrate for DTD

CC1=C(N2CC2)C(=O)C(C)=C(N2CC2)C1=O [MeDZQ, 2,5-diaziridinyl-3,6-dimethyl-1,4-benzoquinone]
DNA crosslinking sequence (DNA [2]): GNC sequences
Ratio of cytotoxicities of IC50, BE (no DTD activity) to H460 (elevated DTD activity) [3]: 33
Cytotoxicity to H596 and H460 cells in comparison to RH1 (H460 and H596 cells): less cytotoxic to both H596 and H460 cells
Differential toxicity to H460 cells (versus H596) (H460 and H596 cells): 17 fold
Activity / cytotoxicity in spheroid studies (spheroid): increased cytotoxicity
DNA damage after reduction (crosslinks, strand breaks) (DNA [1]): absolute requirement for reduction of the drug
Cytotoxicity as a result of transfecting DTD into CHO cells [4]: markedly increased
Relationship between levels of reducing enzymes and efficacy in NSCLC xenografts (NSCLC xenografts; in vivo): confirmed the relationship between the levels of reducing enzymes and the efficacy
solubility [5]: poor solubility
Effectiveness as a substrate for recombinant human DTD relative to mitomycin C (DTD; Beall et al. 1994, Ross et al. 1994): greater than 150 fold
Inhibition / inactivation of DTD at higher pHs (DTD): does not inactivate DTD at higher pHs
pH dependence of metabolism by DTD (DTD): pH-independent
Correlation between DTD levels and cytotoxicity [6]: good correlation
NADH Removal [7]: 21.6 ± 4.0
Quinone Removal [7]: 9.7 ± 2.2
Stability of reactive hydroquinone metabolite [8]: appreciable stability
Increase in cytotoxicity under hypoxic relative to aerobic conditions [9]: very modest increase in cytotoxicity
Correlation (r) between DTD activity and cytotoxicity [10]: 0.3033

CC(=O)OCC1=C(N2CC2)C(=O)C(C)=C(N2CC2)C1=O [Acetyl-, 2-Acetoxymethyl-3,6-diaziridinyl-5-methyl-1,4-benzoquinone]
BE/HT-29 (BE and HT-29 cells): 5.2
H596/H460 (H596 and H460 cells): 4.7

CC1=C(N2CC2)C(=O)C(CO)=C(N2CC2)C1=O [RH1, 2,5-diaziridinyl-3-(hydroxymethyl)-6-methyl-1,4-benzoquinone]
BE/HT-29 (BE and HT-29 cells): 17.5
Ratio of cytotoxicities of IC50, BE (no DTD activity) to H460 (elevated DTD activity) [3]: 51
Half-life in pharmacokinetics [11]: shorter half-life in pharmacokinetics
DNA crosslinking sequence (DNA [12]): GCC sequences
Susceptibility of CHO-812 (DTD overexpressing) to cell killing relative to parent CHO-glyA (CHO812 and CHOglyA cells): more susceptible
Stability of solutions [13]: very stable
half-life ([13]; 0.1 m phosphate buffer, 0.1 M, pH=7, 25° C.): > 48 h
solubility [14]: > 500 µg/mL
H596/H460 (H596 and H460 cells): 41
Cytotoxicity to tumor cell lines with elevated DTD activity, compared with MeDZQ [15]: more cytotoxic to tumor cell lines with elevated DTD activity
Selective killing of DTD-rich cells [15]: selectively kills cells rich in DTD
Fold toxicity to tumor cells with elevated DTD activity (H460) relative to DTD null cells (H596) ([15]; 2 hour exposure, MTT, FIG. 1): 350 fold
NADH Removal [7]: 45.2 ± 6.3
Quinone Removal [7]: 28.2 ± 4.2
Effectiveness as a substrate for DT-diaphorase, compared with MeDZQ ([7]; Example 2): more effective as a substrate for DT-diaphorase than MeDZQ

CC1=C(N2CC2)C(=O)C(COC(=O)c2ccccc2)=C(N2CC2)C1=O [Benzoyl, benzoyl ester of RH1]
BE/HT-29 (BE and HT-29 cells): 0.1
H596/H460 (H596 and H460 cells): 4

CO[C@@]12[C@H](COC(N)=O)C3=C(C(=O)C(C)=C(N)C3=O)N1C[C@@H]1N[C@@H]12 [mitomycin C]
Susceptibility of NSCLC xenografts with high DTD activity versus SCLC xenografts with low DTD activity (NSCLC xenografts; literature): more susceptible
Inhibition / inactivation of DTD at higher pHs (DTD): pH-dependent inhibition of DTD at higher pHs
Substrate quality for DTD (DTD): very poor substrate for DTD
pH dependence of metabolism by DTD (DTD): pH-dependent

Cn1c(/C=C/CO)c(CO)c2c1C(=O)C=C(N1CC1)C2=O [E09]
Activity / cytotoxicity in spheroid studies (spheroid): not active
Ability to penetrate cells and cross cellular membranes [16]: poor ability
DNA damage after reduction (crosslinks, strand breaks) (DNA [1]): exclusively form DNA strand breaks
Substrate quality for DTD (DTD): efficiently reduced by DTD
